Patent publication US12624039B2, “BTK inhibitors” (DIZAL (JIANGSU) PHARMACEUTICAL CO., LTD., priority 2020, dated 2026)
≈ marks a conversion by molar mass, not a printed value.

Columns and labels:
[1] = target: T1, p-BTK (Phospho-Btk Tyr223) in TMD-8 cells (Homo sapiens, UniProt Q06187); assay: TMD8 cell line p-BTK Elisa assay; format: cell-based
T1 construct: endogenous in cells; host or cells: TMD-8
Experimental: The test compounds were added to the cells and cells were incubated for 0.5 hour at 37° C., 5% CO2. Then pervanadate solution was added to the cells to make a final concentration of 100 μM, and cells were incubated for a further 1 hour at 37° C., 5% CO2. […] The plate was read on a Multiscan Spectrum reader set to 450 nm wavelengths.

[2] = Protein binding in human plasma by equilibrium dialysis; format: in vitro ADME; details: human, plasma, pH 7.4, human plasma, 18 hours at 37° C., read-out: hPPB (fu %)
Experimental: (§1) [formula] DF means the dilution factor. Procedure for Protein Binding Measurements in Human Plasma by Using Equilibrium Dialysis
Add 597 μL of blank plasma into each vial of a new plastic plate or separate plastic tube by addition of 3 μL of the working solution of each cassette, vortex at 1,000 rpm for 5 minutes. The final percent volume of organic solvent is 0.5% and the final concentration for test compound is 5 μM. Immediately transfer 50 μL of the spiked plasma suspension to a 96-well plate to act as T=0 control sample. The samples are treated the same as the samples after incubation. Place all remaining spiked plasma in the incubator for the duration of the study.
Place inserts open end up into the wells of the base plate. Add 500 μL of phosphate buffer (pH 7.4) to the buffer chamber, which is indicated by the white ring. Add 300 μL of spiked plasma sample into the sample chamber, which is indicated by the red ring. Cover the unit with gas permeable lid and incubate for 18 hours at 37° C. at 300 rpm with 5% CO2 on an orbital shaker in the CO2 incubator. At the end of incubation, remove lid and pipette 50 μL of post-dialysis samples from both buffer and plasma chambers into separated 96-well plate for analysis, respectively.
At the same time, the remaining spiked plasma sample in the plastic plate or separate plastic tube is incubated for 18 hours at 37° C. with 5% CO2 in the CO2 incubator. At T=18 hours, transfer 50 μL of the original spiked plasma suspension to the 96-well plate for analysis.
Add 50 μL of Human plasma to the buffer samples, and an equal volume of PBS to the collected plasma samples. Vortex the plate at 1,000 rpm for 2 minutes and add 400 μL of acetonitrile containing an appropriate internal standard (IS) to precipitate protein and release compound. Vortex at 1,000 rpm for 10 minutes. Centrifuge for 30 minutes at 4,000 rpm. Transfer 250 μl of the supernatant to new 96-well plates and centrifuge again (4,000 rpm, 30 minutes). Then transfer 100 μL of the supernatant to new 96-well plates for analysis. Add 100 μL of distilled water to each sample and vortex for 5 minutes at 1,000 rpm for analysis by LC-MS/MS. All compounds are tested in singlicate at 5 μM in human plasma.
All calculations are carried out using Microsoft Excel.
Calculate the percentage of unbound, percentage of bound and recovery of test compound as follows: […]

Recombinant BTK(C481S) = target: T2, Recombinant BTK(C481S) (Homo sapiens, UniProt Q06187, C481S); assay: BTK C481S HTRF kinase assay; format: biochemical; details: 30 min pre-incubation, 120 min reaction
T2 construct: purchased SignalChem
Experimental: [The procedure below names another variant; the source lists this variant under the same test.] Recombinant BTK wild type (BTK WT) was purchased from Thermo fisher.
In brief, recombinant kinases were pre-incubated in the presence or absence of compound at room temperature for 30 minutes. The reaction was initiated by the addition of the ATP and substrate peptide which could be phosphorylated by kinases in the reaction. After 120 minutes incubation, the reaction was stopped by the addition of the detection reagent mix containing EDTA.

DMSO solubility = format: physicochemical; details: kinetic from dmso stock
[3] = Log D determination (octanol/phosphate buffer); format: physicochemical; details: 25° C.
Experimental: 10 μL of working solution of each cassette is placed in order into respective 96-well rack position (Log D plate). Add 500 μL of saturated octanol into each vial of the above cap-less Log D plate followed by the addition of 500 μL of saturated phosphate buffer. Seal with a moulded PTFE/SIL 96-Well Plate Cover.
The samples are centrifuged at 4,000 rpm at 25° C. for 30 minutes to separate the phases. Pipette and syringe are used to pipette about 100 μL from the octanol and buffer phases to a new 96-well plate, respectively.
5 μL of octanol sample is transferred to a new 96-well plate, followed by addition of 495 μL of a mixture of H2O and acetonitrile containing internal standard (1:1) as 100 fold octanol samples. Vortex for 5 minutes at 1,000 rpm.
50 μL of 100 fold samples are transferred to new 96-well plate, followed by addition of 450 μL of a mixture of H2O and acetonitrile containing internal standard (1:1) as 1,000 fold octanol samples. Vortex for 5 minutes at 1,000 rpm.
The 1,000 folds octanol samples are serially diluted into 10,000, 100,000 and 1,000,000 folds with a mixture of H2O and acetonitrile containing internal standard (1:1).
50 μL of buffer samples are transferred to new 96-well plate, followed by addition of 450 μL of a mixture of H2O and acetonitrile containing internal standard (1:1) as 10 folds buffer samples. Vortex for 5 minutes at 1,000 rpm.
The 10 folds buffer samples are serially diluted into 100, 1,000 and 10,000 folds with a mixture of H2O and acetonitrile containing internal standard (1:1). The samples are evaluated by LC/MS/MS analysis. All compounds are tested in singlicate.
All calculations are carried out using Microsoft Excel. The concentrations of test compound in octanol/buffer solution are evaluated by LC/MS/MS. Calculate the Log D value of the test compound as follows:
as §1

Hu Mic Clint = format: in vitro ADME, human; details: human, microsomes

T1 sequence (Q06187 whole entry): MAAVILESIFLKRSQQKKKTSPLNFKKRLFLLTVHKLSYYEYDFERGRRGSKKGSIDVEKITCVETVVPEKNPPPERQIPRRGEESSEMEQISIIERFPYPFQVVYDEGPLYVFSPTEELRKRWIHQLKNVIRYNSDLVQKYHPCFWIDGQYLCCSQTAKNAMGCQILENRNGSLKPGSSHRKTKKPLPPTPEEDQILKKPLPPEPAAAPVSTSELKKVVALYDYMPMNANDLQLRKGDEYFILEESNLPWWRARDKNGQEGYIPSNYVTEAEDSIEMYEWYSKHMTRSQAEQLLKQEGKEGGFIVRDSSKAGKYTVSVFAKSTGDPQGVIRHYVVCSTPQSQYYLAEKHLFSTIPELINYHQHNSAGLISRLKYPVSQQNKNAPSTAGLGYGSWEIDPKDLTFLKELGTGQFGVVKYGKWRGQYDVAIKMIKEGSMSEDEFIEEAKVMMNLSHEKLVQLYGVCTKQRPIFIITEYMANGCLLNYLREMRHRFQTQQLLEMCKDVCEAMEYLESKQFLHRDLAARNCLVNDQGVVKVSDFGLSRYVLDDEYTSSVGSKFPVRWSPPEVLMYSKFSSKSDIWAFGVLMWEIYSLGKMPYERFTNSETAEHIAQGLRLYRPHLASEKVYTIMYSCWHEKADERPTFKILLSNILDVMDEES
T2 sequence (Q06187 whole entry C481S): as the sequence (Q06187 whole entry) above, with C481S counted along it

Nc1ncnn2c(C3CCC(CO)OC3)nc(-c3ccc(Oc4cccc(F)c4F)cc3)c12 (stereo not shown) [Compound 14, (5-(4-amino-5-(4-(2,3-difluorophenoxy)phenyl)imidazo[5,1-f][1,2,4]triazin-7-yl)tetrahydro-2H-pyran-2-yl)methanol]
Maximal Inhibition Level ([1]; p-BTK ELISA): 98.0%
IC50 ([1]; pervanadate 100 μM, Tyr223 ELISA): 24.3 nM
fraction unbound at 18 h, 5 μM [2]: 0.049
IC50 (Recombinant BTK(C481S)): 0.86 nM
solubility (DMSO solubility): 48 µM (≈ 21.8 µg/mL)
logD at 2 h [3]: 3.29
microsomal CLint (Hu Mic Clint): < 3 µL/min/mg
